Data taken from patent US20060094013A1, “Salt-inducible kinases 2 and use thereof” (priority 2002, published 2006).
Blank lines part the entries; values can stand above or below the compound they belong to.

Columns and labels:
mouse SIK2 = target: T1, mouse SIK2 (Mus musculus, UniProt Q8CFH6); test: Protein-phosphorylating activity of purified GST-mSIK2 (auto-phosphorylation and GST-Syntide 2 phosphorylation, 32P, SDS-PAGE); type: biochemical
T1 construct: the full-length cDNA in the protein translation region of SIK2 was amplified by the RT-PCR method; made in house; host or cells: COS-7
Procedure: The obtained GST-mSIK2 was mixed with 1 μl of GST-Syntide 2 (Lin et al., as describe above) and [^32P]-[…] (37 kBq; manufactured by ICN) in the presence of a 50 mM Tris-HCl buffer solution (pH 8.0) and 10 mM MnCl2 (20 μl in total). The mixture was allowed to react at 30° C. for 1 hour. The reaction was then terminated by adding 10 μl of an SDS-sample buffer and heating at 100° C. for 5 minutes. 10 μl of the reacted sample was separated using 15% SDS-PAGE, and the SDS-PAGE gel was then dried. The intake of ^32P was detected by exposing it to light for 30 minutes, using an X-ray film (MS-film; manufactured by Kodac). […] For comparison purpose, GST-rat SIK1 and GST-rat SIK1 (K56M) were subjected to the same experiment. Consequently, the same results were obtained.
A GST-mSIK2 protein that was allowed to express in COS-7 cells and then purified was mixed with DMSO solutions containing 5% DMSO and 5% each of 1, 10, 100 nM staurosporine (Sigma) ina reaction system in the test tube used in Example 3. Thereafter, phosphorylating activity was detected by the SDS-PAGE method, so as to evaluate the inhibition of enzyme activity of mouse SIK2 by staurosporine. […] The auto-phosphorylating activity and GST-Syntide 2-phosphorylating activity of GST-mSIK2 were approximately 30% inhibited even by the single use of DMSO. […] It was inhibited by 1 nM staurosporine until the residual activity became approximately 20%. By 10 nM and 100 nM staurosporines, it was almost 100% inhibited.

SIK [1] = test: Immunostaining of dexamethasone-induced SIK in 3T3-L1 cells with antibodies specific for the phosphorylation state; type: cell-based
Procedure: 3T3-L1 cells were inoculated on 96-well plates, and the cells were cultured until they became confluent. The medium placed in such a plate was DMEM/10% FCS. The culture was carried out at 37° C. in 5% CO2. Thereafter, dexamethasone was added to each of the plates, thereby resulting in a concentration of dexamethasone of 1 μM, so that SIK was induced. After 1 hour had passed after the induction, an SIK inhibitor, staurosporine, was added to the plates, thereby resulting in concentrations of 10, 100, and 1,000 nM. Thereafter, the culture was further carried out for 1 hour. […] Subsequently, the cells were added to PBS containing 4% paraformaldehyde, and the mixture was then left at room temperature for 15 minutes, so that the cells were immobilized. Thereafter, the cells were washed with PBS 4 times, and they were then allowed to react with a blocking solution obtained by dissolving 1% skimmed milk in TBST (TBS containing 0.1% Tween 20). Subsequently, 100 μl of antiserum (500 times diluted) containing an antibody binding to SIK1 wherein serine at position 577 is phosphorylated, an antibody binding to SIK1 wherein threonine at position 182 and serine at position 186 are phosphorylated, an anti-SIK antibody, or an antibody binding to SIK1 wherein serine at position 577 is not phosphorylated, was added to the same above blocking solution. The obtained mixture was reacted overnight. After completion of the reaction overnight, an unreacted antibody portion was eliminated by washing with PBS 4 times. A solution obtained by 1,000 times diluting an HRP-labeled anti-rabbit IgG secondary antibody was added to a reaction solution obtained by dissolving 1% skimmed milk in TBS, and the mixture was then reacted at room temperature for 2 hours. Thereafter, the resultant product was washed with PBS 4 times. The antigen-antibody reaction was visualized using Konica Immuno Stain HRP reagent (manufactured by Konica).

CRE = CRE luciferase reporter assay in precursor fat cells 3T3-L1; type: cell-based; conditions: 50 ng/ml; SIK2 not highly expressed
Procedure: For the purpose of detecting the CRE transcription-suppressing activity of SIK2, using Lipofectoamin 200 reagent (2 μl; manufactured by Invitrogen), 200 ng each of pTarget-SIK2 and pTarget-SIK2 (K49M), together with an expression vector (pTAL-CRE; 200 ng; manufactured by Clontech) in which a luciferase gene is located under the control of CRE, were introduced into precursor fat cells 3T3-L1. Moreover, mSIK2 (S587A) having a destroyed PKA phosphorylated portion, which was predicted to exist in mouse SIK2 domain 3 from the findings regarding rat SIK1, was introduced therein, using oligo DNA represented by SEQ ID NO: 16.
In the thus produced mSIK2 (S587A), serine at position 587 was substituted with alanine with respect to the full-length SIK2. For correction of introduction efficiency, a vector (pRL-SC40; 30 ng; manufactured by Promega) that allows luciferase derived from Renilla to express under an SV40 promoter was co-introduced therein. 16 hours later, the cells were stimulated with forskolin (50 μM) for 6 hours, so as to activate CRE. Thereafter, the cells were recovered, and the expression level of a reporter gene was analyzed using Dual Luciferase Assay kit (manufactured by Promega).
The corrected pTAL-CRE-derived activity was divided by the activity derived from pTAL, so as to obtain a specific activity derived from CRE. […]

Gal-CREB (full-length) = test: Gal4-CREB (full-length) luciferase reporter assay; type: cell-based; conditions: 50 ng/ml
Procedure: (§1) In addition, CREB was introduced into the N-terminal side of the Gal4 protein of budding yeast (Gal4 DNA binding domain; Gal4DB). Using a plasmid wherein a reporter gene (fire fly luciferase) was introduced downstream of a promoter having a sequence consisting of 5 consecutive Gal4-binding sequences, the ability of DB to transcribe CREB without the medium of CRE was analyzed. In the case of a Gal-CREB (full-length) system, since it has a bZIP domain, the transcription was inhibited by SIK2 and TNFα (refer to FIG. 9B).

Gal4-CREB(-bZIP) = Gal4-CREB(-bZIP) luciferase reporter assay; type: cell-based; conditions: 50 ng/ml
Procedure: as §1

SIK2 gene = test: SIK2 mRNA level after incubation with hormones (Northern blot); type: cell-based; conditions: used singly, 2 hours; insulin 1 μg/ml, cAMP 1 mM, dexamethasone 1 μM
Procedure: The SIK2 gene was incubated with each of these hormones, and with the mixture consisting of the 3 types of hormones, for 2 hours. Thereafter, the mRNA level of SIK2 was measured. […] The measurement was carried out by the Northern blot analysis using cDNA probes.

SIK [2] = target: T2, SIK (Mus musculus, UniProt Q8CFH6); test: Phosphorylating activity of GST-SIK2 on Syntide 2 in the presence of a p300 peptide (method of Lin et al.); type: biochemical; conditions: GST-SIK2 expressed in COS-7 cells
T2 construct: the full-length cDNA in the protein translation region of SIK2 was amplified by the RT-PCR method; made in house; host or cells: COS-7
Procedure: It was studied whether or not a peptide p300 is phosphorylated by SIK when serine at position 89 in p300 is substituted with alanine (S89A). Moreover, it was also studied whether or not the peptide p300 [84-93 (S89A)] can inhibit the phosphorylating activity of SIK. When the activity of SIK2 was measured by the method of Lin et al., a DMSO solution containing 5% DMSO (dimethyl sulfoxide) and staurosporine was added. SIK2 was allowed to express in the form of a GST binding form in COS-7 cells, and it was then purified using GST-Mirospin kit from Amersham Pharmacia.
The left lane and the central lane show the results regarding a synthetic substrate (Syntide 2) phosphorylated by SIK.

[3] = tested on: CRE-suppressing activity of SIK; test: CRE activity in cells with PKA and SIK, peptide bound to the GFPC carrier; type: cell-based; conditions: peptide bound to C-terminus of GFP; PKA and SIK present
Description: GFPC is a C-terminus binding-type green fluorescent protein. GFPC is used as a peptide carrier, wherein a peptide of interest binds to the C-terminus of GFP. […] The grey one is CRE activity obtained when both PKA and SIK exist.

[4] = 10, 100, 1,000 nM staurosporine

T1 sequence (Q8CFH6 whole entry): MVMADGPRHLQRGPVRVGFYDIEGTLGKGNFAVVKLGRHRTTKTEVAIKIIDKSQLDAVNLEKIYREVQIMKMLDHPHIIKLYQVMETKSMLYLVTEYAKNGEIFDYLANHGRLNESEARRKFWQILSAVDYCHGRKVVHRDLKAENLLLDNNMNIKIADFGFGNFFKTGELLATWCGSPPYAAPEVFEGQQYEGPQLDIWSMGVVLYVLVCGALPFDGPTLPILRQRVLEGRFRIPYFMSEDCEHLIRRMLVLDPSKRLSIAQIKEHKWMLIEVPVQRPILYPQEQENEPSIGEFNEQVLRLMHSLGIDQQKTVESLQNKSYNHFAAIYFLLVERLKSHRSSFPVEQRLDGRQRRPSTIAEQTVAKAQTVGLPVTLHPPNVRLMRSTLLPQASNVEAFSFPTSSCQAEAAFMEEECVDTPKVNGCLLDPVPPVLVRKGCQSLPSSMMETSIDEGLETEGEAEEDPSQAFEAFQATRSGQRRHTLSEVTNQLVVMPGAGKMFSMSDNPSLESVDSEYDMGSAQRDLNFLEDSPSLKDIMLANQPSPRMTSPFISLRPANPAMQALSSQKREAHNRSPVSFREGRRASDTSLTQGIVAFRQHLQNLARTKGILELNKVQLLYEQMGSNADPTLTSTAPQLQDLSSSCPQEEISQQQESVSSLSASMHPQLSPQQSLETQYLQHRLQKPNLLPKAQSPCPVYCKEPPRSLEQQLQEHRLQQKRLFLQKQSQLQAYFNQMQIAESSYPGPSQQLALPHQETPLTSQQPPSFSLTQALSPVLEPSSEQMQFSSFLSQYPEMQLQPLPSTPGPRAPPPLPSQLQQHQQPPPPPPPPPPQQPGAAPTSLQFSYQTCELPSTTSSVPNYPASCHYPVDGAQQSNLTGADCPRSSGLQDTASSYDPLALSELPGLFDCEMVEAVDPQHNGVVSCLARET
T2 sequence (Q8CFH6 whole entry): as above

inhibition of auto-phosphorylating activity and GST-Syntide 2-phosphorylating activity of GST-mSIK2 (mouse SIK2; single use of DMSO (5% DMSO)): approximately 30%
Compound: C[S+](C)[O-] [DMSO, dimethyl sulfoxide]

Compound: CN[C@@H]1C[C@H]2O[C@@](C)([C@@H]1OC)n1c3ccccc3c3c4c(c5c6ccccc6n2c5c31)C(=O)NC4 [staurosporine]
reaction of anti-phosphorylation Ser577 antibody with SIK (SIK [1]; 10 nM staurosporine, 1 hour): significantly decreased
reaction of anti-phosphorylation Thr182-Ser186 antibody with SIK (SIK [1]; 10 nM staurosporine, 1 hour): significantly decreased
reaction of SIK with anti-SIK1 antibody (SIK [1]; [4]): not significantly decreased
reactivity of antibody binding to SIK1 wherein serine at position 577 is not phosphorylated (SIK [1]; [4]): increased depending on the concentration of staurosporine
residual phosphorylating activity of SIK2 (mouse SIK2; 1 nM staurosporine in 5% DMSO solution): approximately 20%
inhibition at 0.01 µM (mouse SIK2; 10 nM staurosporine): ~100%
inhibition at 0.1 µM (mouse SIK2; 100 nM staurosporine): ~100%
concentration dependence of inhibition of phosphorylating activity of SIK2 (mouse SIK2; 1, 10, 100 nM): concentration-dependently inhibited

Compound: TNFα
effect on activation of CRE due to PKA (CRE): sufficiently suppressed the activation of CRE due to PKA
effect on transcription in Gal-CREB (full-length) system (Gal-CREB (full-length)): inhibited
effect on transcription in Gal4-CREB(-bZIP) system (Gal4-CREB(-bZIP)): suppressed

Compound: insulin
effect on transcription of the SIK2 gene (mRNA level) (SIK2 gene): promoted the transcription of the SIK2 gene

effect on enzyme activity of SIK (Syntide 2 phosphorylation) (SIK [2]): inhibits the enzyme activity of SIK
Compound: p300 [84-93 (S89A)]: peptide p300 residues 84-93 with serine at position 89 substituted with alanine; bound to GFPC carrier in the cell test (LLRSGASPNL)
effect on CRE-suppressing activity of SIK in cells [3]: inhibits the CRE-suppressing activity of SIK in cells
